Key:
[1] = test system: SUIT-2 (Pancreatic Carcinoma); assay: combination Emax (second highest fraction inhibited in the dose matrix, 72 h); higher = more inhibition; extreme values may be limits of the assay
In short: (§1)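 Cell lines grown in DMEM/F12 or RPMI with 10% FBS were plated in 1536-well plates and held 24 hours at 37°C, 5% CO2 before 72 hours of exposure to two-drug dose matrices, with DMSO typically at 0.2%. CellTiter-Glo 2.0 luminescence gave viability, which was converted to inhibition. Vehicle wells were set to 0 and blank wells to 1. Combination Emax is the second-highest inhibition in the matrix, and Bliss excess is the observed combination effect minus the expected EA + EB − EA·EB, where EA and EB are the single-agent effects.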

[2] = test system: LU-99A (Non-Small Cell Lung Carcinoma); assay: as above
In short: as §1

[3] = test system: HPAC (Pancreatic Carcinoma); assay: as above
In short: as §1

[4] = test system: DMS-273 (Small Cell Lung Carcinoma); assay: as above
In short: as §1

[5] = test system: JiyoyeP-2003 (Burkitt's Lymphoma); assay: as above
In short: as §1

[6] = test system: 697 (B-Lymphoblastic Leukemia); assay: as above
In short: as §1

ES7 (Ewing's Sarcoma) = assay: as above
In short: as §1

[7] = test system: KM-H2 (Hodgkin's Lymphoma); assay: as above
In short: as §1

[8] = test system: U-266 (Plasma Cell Myeloma); assay: as above
In short: as §1

[9] = test system: SW756 (Cervical Carcinoma); assay: Bliss excess, mean over the matrix (fraction); higher = more synergy
In short: as §1

[10] = test system: HCC2157 (Breast Carcinoma); assay: as above
In short: as §1

RH-1 (Ewing's Sarcoma) = assay: as above
In short: as §1

[11] = test system: DMS-273 (Small Cell Lung Carcinoma); assay: as above
In short: as §1

NCI-H2595 (Mesothelioma) = assay: as above
In short: as §1

[12] = test system: C3A (Hepatocellular Carcinoma); assay: as above
In short: as §1

[13] = test system: U-266 (Plasma Cell Myeloma); assay: as above
In short: as §1

[14] = test system: COR-L23 (Non-Small Cell Lung Carcinoma); assay: as above
In short: as §1

[15] = test system: SW780 (Bladder Carcinoma); assay: as above
In short: as §1

[16] = test system: HT-29 (Colorectal Carcinoma); assay: as above
In short: as §1

[17] = test system: SW1783 (Low Grade Glioma); assay: as above
In short: as §1
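For Bliss excess, mean over the matrix in this document: after 72 h of two-drug dosing.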

Compound	combination Emax [1]	combination Emax [2]	combination Emax [3]	combination Emax [4]	combination Emax [5]	combination Emax [6]	combination Emax (ES7 (Ewing's Sarcoma))	combination Emax [7]	combination Emax [8]	Bliss excess [9]	Bliss excess [10]	Bliss excess (RH-1 (Ewing's Sarcoma))	Bliss excess [11]	Bliss excess (NCI-H2595 (Mesothelioma))	Bliss excess [12]	Bliss excess [13]	Bliss excess [14]	Bliss excess [15]	Bliss excess [16]	Bliss excess [17]
CN(CCO)CC[C@H](CSc1ccccc1)Nc1ccc(S(=O)(=O)NC(=O)c2ccc(N3CCC([C@@H](O)c4ccccc4-c4ccc(Cl)cc4)CC3)cc2)cc1S(=O)(=O)C(F)(F)F [AZD4320] + CN(C)CCCOc1ccc(-c2ccc3ncc4c(c3c2)n(C2CCOCC2)c(=O)n4C)cn1 [AZD0156] (first compound max 1 µM, 7x7, partner max 1 µM)	0.0928	0.292	0.371	0.247	0.645	1	0.747	0.155	0.506	-0.0362	0.009	-0.024	-0.0199	-0.0348	-0.0281	0.0462	-0.0231	-0.0392	-0.0238	-0.0298
C=CCn1c(=O)c2cnc(Nc3ccc(N4CCN(C)CC4)cc3)nc2n1-c1cccc(C(C)(C)O)n1 [AZD1775] + C[C@@H]1COCCN1C2=NC(=NC(=C2)C3(CC3)[S@](=N)(=O)C)C4=C5C=CNC5=NC=C4 [AZD6738] (first compound max 1 µM, partner max 10 µM)	0.728	0.694	0.705	0.923	0.982	1	0.903	0.961	0.707	-0.0278	0.0218	0.0329	0.0645	-0.0206	-0.0104	0.0235	0.0462	-0.0092	-0.0089	-0.0432
Cc1c2c(nn1C)CSCc1cc(n(C)n1)CSc1cc(c3ccccc3c1)OCCCc1c(C(=O)O)n(C)c3c-2c(Cl)ccc13 [AZD5991] + CCN(CCO)CCCOc1ccc2c(Nc3cc(CC(=O)Nc4cccc(F)c4)[nH]n3)ncnc2c1 [AZD2811] (first compound max 1 µM, 7x7, partner max 1 µM)	0.19	0.37	0.623	0.993	0.803	1	0.95	0.271	0.945	0.0141	-0.0241	-0.0457	-0.0949	0.0141	0.0494	0.0482	0.0013	0.0188	0.0498	-0.0135
C[C@@H](c1ccc2nccn2c1)n1nnc2ncc(-c3cnn(C)c3)nc21 [Savolitinib] + Cc1c2c(nn1C)CSCc1cc(n(C)n1)CSc1cc(c3ccccc3c1)OCCCc1c(C(=O)O)n(C)c3c-2c(Cl)ccc13 [AZD5991] (first compound max 1 µM, 7x7, partner max 1 µM)	0.208	0.134	0.168	0.933	0.166	1	0.554	0.11	0.859	-0.0692	-0.0289	0.0031	-0.0356	-0.052	-0.0229	-0.0655	-0.048	-0.0487	-0.0297	-0.0133
NC1(C(=O)N[C@@H](CCO)c2ccc(Cl)cc2)CCN(c2ncnc3[nH]ccc23)CC1 [Capivasertib] + COc1nnc2ccc(N3CCC(c4ccc(OCCN5CCN(C)C(=O)[C@H]5C)cc4)CC3)nn12 [AZD5153] (first compound max 10 µM, 7x7, partner max 1 µM)	0.535	0.665	0.68	0.884	0.912	0.985	0.811	0.546	0.38	0.0197	-0.008	0.0517	0.0231	-0.0072	0.0515	0.0076	0.0335	0.0042	-0.0029	0.0324
Cc1c2c(nn1C)CSCc1cc(n(C)n1)CSc1cc(c3ccccc3c1)OCCCc1c(C(=O)O)n(C)c3c-2c(Cl)ccc13 [AZD5991] + CC1(C)CCC(CN2CCN(c3ccc(C(=O)NS(=O)(=O)c4ccc(NCC5CCOCC5)c([N+](=O)[O-])c4)c(Oc4cnc5[nH]ccc5c4)c3)CC2)=C(c2ccc(Cl)cc2)C1 [Venetoclax] (first compound max 1 µM, 7x7, partner max 1 µM)	0.209	0.111	0.244	0.964	0.732	1	0.893	0.312	0.97	-0.0331	0.0305	0.0491	-0.0099	-0.0384	-0.0519	0.0759	-0.0178	0.0215	-0.0015	-0.0164
COc1cccc(OCCCN)c1-c1cc(Nc2cnc(C#N)cn2)n[nH]1 [Prexasertib] + CN(C)CCCOc1ccc(-c2ccc3ncc4c(c3c2)n(C2CCOCC2)c(=O)n4C)cn1 [AZD0156] (first compound max 1 µM, 7x7, partner max 1 µM)	0.682	0.823	0.795	0.923	0.987	1	0.838	0.933	0.728	-0.0179	-0.0366	0.0241	-0.0183	-0.0573	0.0035	-0.032	0.0229	-0.0232	-0.0343	-0.0111
Cn1cnc2c(F)c(Nc3ccc(Br)cc3Cl)c(C(=O)NOCCO)cc21 [Selumetinib] + C[C@@H]1COCCN1C2=NC(=NC(=C2)C3(CC3)[S@](=N)(=O)C)C4=C5C=CNC5=NC=C4 [AZD6738] (first compound max 10 µM, 7x7, partner max 10 µM)	0.386	0.569	0.735	0.811	0.947	1	0.777	0.751	0.717	0.0323	0.0059	-0.0215	-0.0676	-0.0326	0.0471	-0.0303	-0.0148	0.0087	-0.019	-0.103
NC1(C(=O)N[C@@H](CCO)c2ccc(Cl)cc2)CCN(c2ncnc3[nH]ccc23)CC1 [Capivasertib] + Cn1cnc2c(F)c(Nc3ccc(Br)cc3Cl)c(C(=O)NOCCO)cc21 [Selumetinib] (first compound max 10 µM, 7x7, partner max 10 µM)	0.646	0.709	0.783	0.837	0.775	0.617	0.448	0.292	0.694	-0.0177	0.017	0.0148	-0.003	-0.0454	-0.0208	0.0745	0.0071	0.0066	-0.0119	-0.0097
CN(CCO)CC[C@H](CSc1ccccc1)Nc1ccc(S(=O)(=O)NC(=O)c2ccc(N3CCC([C@@H](O)c4ccccc4-c4ccc(Cl)cc4)CC3)cc2)cc1S(=O)(=O)C(F)(F)F [AZD4320] + C1CN(CCC1(C(=O)N[C@@H](CCO)C2=CC=C(C=C2)Cl)N)C3=NC=NC4=C3C=CN4 [Capivasertib] (first compound max 1 µM, 7x7, partner max 3 µM)	0.074	0.35	0.137	0.713	0.773	1	0.762	0.0543	0.577	-0.0506	0.0191	0.0468	-0.0782	-0.0458	-0.0904	-0.0061	-0.0254	-0.053	-0.0331	-0.119
CC1(C)CCC(CN2CCN(c3ccc(C(=O)NS(=O)(=O)c4ccc(NCC5CCOCC5)c([N+](=O)[O-])c4)c(Oc4cnc5[nH]ccc5c4)c3)CC2)=C(c2ccc(Cl)cc2)C1 [Venetoclax] + Cc1cc2ncnn2cc1Nc1ncc2c(n1)n(C1CCOCC1)c(=O)n2C [AZD7648] (first compound max 1 µM, 7x7, partner max 10 µM)	0.198	0.404	0.288	0.482	0.317	0.983	0.714	0.161	0.511	0.0031	0.0602	0.0029	-0.0147	-0.0185	-0.0588	0.0148	-0.0351	-0.0035	0.0077	-0.0395
COc1cccc2c1C(=O)c1c(O)c3c(c(O)c1C2=O)C[C@@](O)(C(=O)CO)C[C@@H]3O[C@H]1C[C@H](N)[C@H](O)[C@H](C)O1 [Doxorubicin] + Cc1cc2ncnn2cc1Nc1ncc2c(n1)n(C1CCOCC1)c(=O)n2C [AZD7648] (first compound max 1 µM, 7x7, partner max 10 µM)	0.646	0.751	0.633	0.866	0.981	1	1	0.791	0.612	0.0541	0.112	0.163	0.0727	0.0084	-0.0065	0.115	0.0351	0.0082	0.0099	0.0262

— the supplement of paper PMC11061612
